Reference: US20160144021A1, “Vaccine Composition And Method Of Use” (MEDIMMUNE, LLC, priority 2013, published 2016)
Read-outs that look alike come from different tables or passages of the source.

Columns and labels:
[1] = test system: RSV sF protein
[2] = test system: RSV-F MHC I and MHC II restricted peptides; experiment: IFNγ ELISPOT of splenocytes, naive BALB/c mice; format: in vivo; conditions: Day 32, 4 days post challenge, MHC I F peptide
[3] = test system: IL-5, IL-13, IFNγ, IL-17, eotaxin; experiment: Cytokines in lung homogenates after RSV challenge, naive BALB/c mice; format: in vivo; design: pulmonary eotaxin levels (mean): unit not given here
Protocol: Lung homogenates were clarified by centrifugation prior to use. […] F-specific splenic cytokine production was determined by subtracting media alone values from F stimulated values.

[4] = test system: RSV sF; experiment: Serum F-specific IgA ELISA, 1x RSV seropositive BALB/c mice; format: in vivo; conditions: Day 14; RSV sF at 10 μg, RSV sF+GLA-SE at any of the 3 doses
Protocol: Serology readouts were made at Days 0, 14, 28, 42, 56, and 73 for each group. Animals were lightly anesthetized with isoflurane and bled intraorbitally. Serum was separated and stored at −20° C. and thawed for testing. Total anti-F IgG were measured at each timepoint, with anti-F IgG1 and anti-F IgG2a ELISA endpoint dilution titers measured at Day 0 and Day 42. RSV neutralization titer was determined by a RSV A2-GFP microneutralization assay. The polyclonal nature of the anti-F IgG response was evaluated on Day 42 by competition ELISA with site-specific monoclonal antibodies to RSV-F. Anti-F IgA endpoint dilution titers were measured at Day 14 for each group.

[5] = test system: RSV sF protein; experiment: IFNγ ELISPOT of splenocytes, naive Sprague Dawley rats; format: in vivo; conditions: Day 46, 4 days post RSV challenge
Protocol: Systemic cellular immune responses to vaccination were evaluated in all available animals at Day 46, 4 days post RSV challenge. For each of the groups, individual splenocyte samples were prepared. T-cell readouts were assessed by ELISPOT counts of IFNγ-secreting cells following a 36-48 hour restimulation with RSV sF. Significance was calculated using GraphPad Prism 1-way ANOVA with either Tukey or Bonferroni post test with a significance cutoff of p<0.05.

[6] = test system: RSV-F derived MHC II (I-Ed)-binding peptides; experiment: F-specific CD4 T-cell cytokine profiling of restimulated splenocytes, naive BALB/c mice; format: in vivo; conditions: splenocytes 4 days post challenge, 72 h restimulation
[7] = test system: RSV A2; experiment: RSV A2-GFP neutralizing Ab titers of sera, cynomolgus monkeys; format: in vivo
Description: At Day 169, 5 months post vaccination, the booster vaccination was given.

[8] = test system: RSV sF; experiment: Serum RSV F-specific IgG, IgG1, IgG2a ELISA, highly seropositive BALB/c mice; format: in vivo; conditions: day 84
Protocol: One hundred three female BALB/c mice (Charles River), ages 6-8 weeks old, were divided into 13 groups. Group 1 had 7 mice and groups 2 through 13 had 8 mice. Following anaesthetization groups 1 through 12 were dosed with 1×10^6 plaque forming units (PFU) in 100 μL of live RSV via an intranasal (IN) route on Day 0 and Day 35. Group 13 was not exposed to RSV. On Day 56, groups 1 through 11 were immunized with placebo (PBS) or vaccine article via an intramuscular (IM) route following anesthesia with isoflurane. The vaccine articles were formulated in a total of 100 μL with 50 μL given in each hind limb. Group 12 was anesthetized with isoflurane and immunized with 1×10^6 PFU in 100 μL of live RSV via an IN route. […] Sera were obtained from retro orbital blood collection at study days 0, 28, 56 70 and 84, separated from whole blood and stored at −20° C. until evaluated. Spleens from 4 animals in each group were harvested for T cell assays on Day 67, 11 days post immunization, or at day 88, 4 days post challenge. Lung cytokines quantified at 4 days after challenge in individual lung homogenates by luminex assay (Milipore).

[9] = Lung histopathology after RSV challenge, naive BALB/c mice; format: in vivo; conditions: H&E lung sections day 4 post RSV challenge
Protocol: Lung sections (5 micron) were prepared using a microtome from paraffin-embedded formalin-fixed lung lobes harvested at day 4 post RSV challenge. Sections stained with hematoxylin and eosin were digitally scanned and examined by a licensed pathologist. Lung sections were evaluated for pulmonary lesion characteristics such as presence of bronchiolar hyperplasia, alveolitis, eosinophilic infiltrate and infiltration of the peribronchiolar/perivascular spaces.

[10] = test system: RSV A2; experiment: Serum RSV neutralizing titers, naive cotton rats; format: in vivo; conditions: day 42, naive cotton rats
Protocol: RSV neutralizing antibody titers in heat-inactivated mouse sera at indicated timepoints were measured using a GFP-tagged RSV A2 micro-neutralization assay as previously described (Bernstein D I, et al. (2012) Phase 1 study of the safety and immunogenicity of a live, attenuated respiratory syncytial virus and parainfluenza virus type 3 vaccine in seronegative children. Pediatr Infect Dis J 31: 109-114). Briefly, confluent Vero cell monolayers were infected with 500 PFU of virus alone or virus pre-mixed with serially diluted serum samples, then incubated at 33° C. and 5% CO2 for 22 hrs. Plates were washed of free virus and GFP fluorescent viral foci were enumerated using the IsoCyte image scanner (Blueshift, Sunnyvale, Calif.).
Cotton rats are a well established model for RSV studies and are often used in the preclinical evaluation of potential RSV vaccine candidates. To confirm the immune profile of GLA-SE adjuvanted RSV sF vaccine in a second RSV challenge model, individual cotton rats were administered the same RSV sF subunit vaccines at similar doses used for mice. RSV sF at 0.3 μg without adjuvant or adjuvanted with GLA, SE, GLA-SE, or alum was given intramuscularly at days 0 and 22.

[11] = lung homogenates 4 days post RSV challenge

## RSV sF: RSV soluble F protein, amino acids 1-524 of the RSV A2 F sequence lacking the transmembrane domain, given without adjuvant
[1]; 4 animals per group
  animals with ≧4-fold rise in IgG titers at Day 183 compared to Day 169: 2 of 4
[1]; Day 42, 100 μg RSV sF at days 0 and 28
  geomean anti-F IgG titer: 10.45±2.68 log 2
[1]; Day 183, 14 days post booster at Day 169
  geomean anti-F IgG titer: 12.55±2.16 log 2
[2]
  F-specific CD8 IFNγ ELISPOT: ~30 spot forming units (SFU)/million cells
[3]; 4 days post RSV challenge, ratio >1.0 = more Th1-type
  mean IFNγ to IL-5 ratio in lung homogenates: 0.3
[3]; [11]
  IL-5 and IL-13 in the lungs: detected
  pulmonary eotaxin levels (mean): 911
[4]
  serum F-specific IgA titers versus seropositive animals vaccinated with PBS: significantly higher serum F-specific IgA titers
[5]; 10 μg RSV sF
  F-specific IFNγ ELISPOT responses: 64.00 SFU/million cells
[5]; 100 μg RSV sF
  F-specific IFNγ ELISPOT responses: 87.78 SFU/million cells
[6]
  F-specific CD4 T-cell cytokine production profile: Th2-type response characterized by IL-5 and IL-13 cytokines
[7]; Day 42
  animals with 4-fold boost in neutralizing titers from Day −7 levels: 1/4
  geometric mean RSV neutralizing Ab titer: 3.52±1.14 log 2
[7]; Day 169
  RSV neutralizing Ab titers: 2.97 log 2
[7]; Day 183, 14 days following the third immunization
  geomean neutralizing Ab titers: 4.46±1.79 log 2
[8]
  Th bias from RSV sF-specific IgG1 and IgG2a serum titers: maintained the Th1 bias
[9]
  pulmonary inflammation / lesion scores: increased pulmonary lesion scores
[10]
  RSV neutralizing titers (mean): 4.3 log2
